Molecules are shown by their SMILES.

The target of assay [1] is GDP-bound KRAS wild-type protein (Homo sapiens, UniProt P01116). As to the kind of experiment: Binding to KRAS by surface plasmon resonance (SPR), Single Cycle Kinetics. The following applies: SPR, Single Cycle Kinetics; GDP-bound KRAS wild-type protein.
The target of assay [2] is GDP-bound NRAS wild-type protein (Homo sapiens, UniProt P01111). As to the kind of experiment: Binding to NRAS by surface plasmon resonance (SPR), Single Cycle Kinetics. The following applies: SPR; KD ratio class.
Sequence of GDP-bound NRAS wild-type protein (P01111 whole entry): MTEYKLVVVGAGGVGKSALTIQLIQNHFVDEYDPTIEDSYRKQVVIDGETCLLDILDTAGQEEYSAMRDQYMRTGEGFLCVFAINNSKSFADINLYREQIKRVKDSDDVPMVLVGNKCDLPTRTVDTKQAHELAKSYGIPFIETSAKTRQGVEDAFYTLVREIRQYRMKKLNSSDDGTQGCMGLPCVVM
For assay [3], the target named is GDP-bound HRAS wild-type protein (Homo sapiens, UniProt P01112). As to the kind of experiment: Binding to HRAS by surface plasmon resonance (SPR), Single Cycle Kinetics. The following applies: SPR; KD ratio class. A general note: SPR reads the build-up and loss of mass on a sensor chip optically.
Sequence of GDP-bound HRAS wild-type protein (P01112 whole entry): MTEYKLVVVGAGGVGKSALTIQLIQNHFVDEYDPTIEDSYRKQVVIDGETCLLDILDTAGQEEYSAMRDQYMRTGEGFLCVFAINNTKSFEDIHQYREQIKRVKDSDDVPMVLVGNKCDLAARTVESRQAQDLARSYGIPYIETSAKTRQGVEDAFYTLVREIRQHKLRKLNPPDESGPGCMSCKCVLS
Assay [4] relates to human lung cancer strain NCI-H441. The following applies: read-out: NCI-H441 IC50; NCI-H441 cells, 4 days, CellTiter-Glo. Background: In ATP-based viability assays light output follows the ATP content of the culture.

`CCCOC[C@H]1C(=O)N[C@@H]([C@@H](C)CC)C(=O)N(C)CC(=O)N(C)[C@H]2C/C=C\CCN(C2=O)[C@@H](Cc2ccc(C(F)(F)F)cc2)C(=O)N(C)CC(=O)N[C@@H](CCc2cc(F)c(C(F)(F)F)c(F)c2)C(=O)N2C[C@H](OCC)C[C@H]2C(=O)NC2(CC(C)(C)C2)C(=O)N(C)[C@@H](C2CCCC2)C(=O)N(C)[C@H](C(=O)N(C)C)CC(=O)N1C` [PP1398]: the Kd – broadly, a measure of binding affinity in units of concentration – in assay [1] is 0.032 nM. Moreover, the “NRAS/KRAS (ratio of KD value for GDP-bound NRAS wild-type protein to KD value for KRAS)” value in assay [2] is “A (a compound having 10 or more and less than 20 is denoted as A)”. Also, the “HRAS/KRAS (ratio of KD value for GDP-bound HRAS wild-type protein to KD value for KRAS)” value in assay [3] is “A (a compound having 10 or more and less than 20 is denoted as A)”. For the same molecule, the IC50 (as a rule, the concentration that inhibits the measured activity by half) in assay [4] was found to be 2.3 nM.
For the molecule `CCO[C@@H]1C[C@H]2C(=O)NC3(CCC3)C(=O)N(C)[C@@H](C3CCCC3)C(=O)N(C)[C@H](C(=O)N(C)C)CC(=O)N(C)[C@@H](CC3CC3)C(=O)N[C@@H]([C@@H](C)CC)C(=O)N(C)CC(=O)N(C)[C@H]3C/C=C\CCN(C3=O)[C@@H](Cc3ccc(C)cc3)C(=O)N(C)CC(=O)N[C@@H](CCc3cc(F)c(C(F)(F)F)c(F)c3)C(=O)N2C1` [PP1407], binding in assay [1] was put at a Kd of 0.074 nM. Also, the “NRAS/KRAS (ratio of KD value for GDP-bound NRAS wild-type protein to KD value for KRAS)” value in assay [2] is “A (a compound having 10 or more and less than 20 is denoted as A)”. Moreover, in assay [3], the “HRAS/KRAS (ratio of KD value for GDP-bound HRAS wild-type protein to KD value for KRAS)” value was “A (a compound having 10 or more and less than 20 is denoted as A)”. In assay [4], the IC50 is 18.7 nM.
`CCO[C@@H]1C[C@H]2C(=O)NC3(CCC3)C(=O)N(C)[C@@H](C3CCCC3)C(=O)N(C)[C@H](C(=O)N3CCCC3)CC(=O)N(C)[C@@H](CC)C(=O)N[C@@H]([C@@H](C)CC)C(=O)N(C)CC(=O)N(C)[C@H]3C/C=C\CCN(C3=O)[C@@H](CC3CCC(F)(F)CC3)C(=O)N(C)CC(=O)N[C@@H](CCc3cc(F)c(C(F)(F)F)c(F)c3)C(=O)N2C1` [PP1442] displayed a Kd in assay [1] of 0.13 nM. The “NRAS/KRAS (ratio of KD value for GDP-bound NRAS wild-type protein to KD value for KRAS)” value in assay [2] was “A (a compound having 10 or more and less than 20 is denoted as A)”. Further, the “HRAS/KRAS (ratio of KD value for GDP-bound HRAS wild-type protein to KD value for KRAS)” value in assay [3] was “A (a compound having 10 or more and less than 20 is denoted as A)”. The IC50 in assay [4] came to 48.3 nM.
Molecule `CCO[C@@H]1C[C@H]2C(=O)NC3(CCC3)C(=O)N(C)[C@@H](C3CCCC3)C(=O)N(C)[C@H](C(=O)N(C)C)CC(=O)N(C)[C@@H](CC3CC3)C(=O)N[C@@H]([C@@H](C)CC)C(=O)N(C)CC(=O)N(C)[C@H]3C/C=C\CCN(C3=O)[C@@H](CC3CCC(F)(F)CC3)C(=O)N(C)CC(=O)N[C@@H](CCc3cc(F)c(C(F)(F)F)c(F)c3)C(=O)N2C1` [PP1447] displayed a dissociation constant (Kd) in assay [1] of 0.12 nM. The “NRAS/KRAS (ratio of KD value for GDP-bound NRAS wild-type protein to KD value for KRAS)” value in assay [2] was “A (a compound having 10 or more and less than 20 is denoted as A)”. The “HRAS/KRAS (ratio of KD value for GDP-bound HRAS wild-type protein to KD value for KRAS)” value in assay [3] was “A (a compound having 10 or more and less than 20 is denoted as A)”. Also, the IC50 in assay [4] was 28.9 nM.
As to `CCC[C@H]1C(=O)N[C@@H]([C@@H](C)CC)C(=O)N(C)CC(=O)N(C)[C@H]2C/C=C\CCN(C2=O)[C@@H](CC2CCC(F)(F)CC2)C(=O)N(C)CC(=O)N[C@@H](CCc2cc(F)c(C(F)(F)F)c(F)c2)C(=O)N2C[C@H](OCC)C[C@H]2C(=O)NC2(CCC2)C(=O)N(C)[C@@H](C2CCCC2)C(=O)N(C)[C@H](C(=O)N(C)C)CC(=O)N1C` [PP1450], in assay [1], the Kd was found to be 0.14 nM. In addition, in assay [2], the “NRAS/KRAS (ratio of KD value for GDP-bound NRAS wild-type protein to KD value for KRAS)” value is “A (a compound having 10 or more and less than 20 is denoted as A)”. For the same molecule, in assay [3], the “HRAS/KRAS (ratio of KD value for GDP-bound HRAS wild-type protein to KD value for KRAS)” value is “A (a compound having 10 or more and less than 20 is denoted as A)”. Further, the IC50 in assay [4] was 50.1 nM.

For the origin of these results see patent publication US20250230193A1, “CYCLIC COMPOUND HAVING SELECTIVE KRAS INHIBITORY EFFECT ON HRAS AND NRAS” (CHUGAI SEIYAKU KABUSHIKI KAISHA, priority 2022, published 2025).
